≈ marks a conversion by molar mass, not a printed value.
Tests used:
Escherichia coli [1] = assay: Antibacterial activity against Escherichia coli 15-3 overexpressing extended spectrum beta-lactamases assessed as reduction in bacterial growth in the presence of Avibactam; type: functional
Klebsiella pneumoniae [2] = assay: Antibacterial activity against ESBLs positive Carbapenem-sensitive Klebsiella pneumoniae 17-10 assessed as reduction in bacterial growth in the presence of Avibactam; type: functional
Klebsiella pneumoniae [3] = assay: Antibacterial activity against ESBLs positive Carbapenem-sensitive Klebsiella pneumoniae 17-11 assessed as reduction in bacterial growth in the presence of Avibactam; type: functional
Klebsiella pneumoniae [4] = assay: Antibacterial activity against ESBLs negative Carbapenem-sensitive Klebsiella pneumoniae 17-19 assessed as reduction in bacterial growth in the presence of Avibactam; type: functional
Escherichia coli [5] = assay: Antibacterial activity against ESBLs positive Carbapenem-sensitive Escherichia coli 17-3 assessed as reduction in bacterial growth in the presence of Avibactam; type: functional
Escherichia coli [6] = assay: Antibacterial activity against ESBLs positive Carbapenem-sensitive Escherichia coli 17-14 assessed as reduction in bacterial growth in the presence of Avibactam; type: functional
Escherichia coli [7] = assay: Antibacterial activity against ESBLs positive Carbapenem-sensitive Escherichia coli 17-21 assessed as reduction in bacterial growth in the presence of Avibactam; type: functional
Escherichia coli [8] = assay: Antibacterial activity against ESBLs negative Carbapenem-sensitive Escherichia coli 17-4 assessed as reduction in bacterial growth in the presence of Avibactam; type: functional
Escherichia coli [9] = assay: Antibacterial activity against ESBLs negative Carbapenem-sensitive Escherichia coli 17-9 assessed as reduction in bacterial growth in the presence of Avibactam; type: functional
Escherichia coli [10] = assay: Antibacterial activity against ESBLs negative Carbapenem-sensitive Escherichia coli 17-16 assessed as reduction in bacterial growth in the presence of Avibactam; type: functional
Escherichia coli [11] = assay: Antibacterial activity against ESBLs negative Carbapenem-sensitive Escherichia coli 17-19 assessed as reduction in bacterial growth in the presence of Avibactam; type: functional
Escherichia coli [12] = assay: Antibacterial activity against ESBLs negative Carbapenem-sensitive Escherichia coli 17-20 assessed as reduction in bacterial growth in the presence of Avibactam; type: functional
Enterobacter cloacae [13] = assay: Antibacterial activity against Enterobacter cloacae 17-3 assessed as reduction in bacterial growth in the presence of Avibactam; type: functional
Enterobacter cloacae [14] = assay: Antibacterial activity against Enterobacter cloacae 17-6 assessed as reduction in bacterial growth in the presence of Avibactam; type: functional
Enterobacter cloacae [15] = assay: Antibacterial activity against Enterobacter cloacae 17-9 assessed as reduction in bacterial growth in the presence of Avibactam; type: functional
Pseudomonas aeruginosa [16] = assay: Antibacterial activity against Carbapenem- sensitive Pseudomonas aeruginosa 17-30 assessed as reduction in bacterial growth in the presence of Avibactam; type: functional
Pseudomonas aeruginosa [17] = assay: Bactericidal activity against Carbapenem- resistant Pseudomonas aeruginosa 17-1 assessed as reduction in bacterial growth; type: functional
Klebsiella pneumoniae [18] = assay: Ratio of MBC to MIC for ESBLs positive Carbapenem-sensitive Klebsiella pneumoniae 17-6 assessed as reduction in bacterial growth; type: functional
Klebsiella pneumoniae [19] = assay: Ratio of MBC to MIC for ESBLs positive Carbapenem-sensitive Klebsiella pneumoniae 17-12 assessed as reduction in bacterial growth; type: functional
Klebsiella pneumoniae [20] = assay: Ratio of MBC to MIC for ESBLs negative Carbapenem-sensitive Klebsiella pneumoniae 17-17 assessed as reduction in bacterial growth; type: functional
Escherichia coli [21] = assay: Ratio of MBC to MIC for ESBLs negative Carbapenem-sensitive Escherichia coli 17-9 assessed as reduction in bacterial growth; type: functional
Escherichia coli [22] = assay: Ratio of MBC to MIC for ESBLs negative Carbapenem-sensitive Escherichia coli 17-20 assessed as reduction in bacterial growth; type: functional
Escherichia coli [23] = assay: Ratio of MBC to MIC for ESBLs positive Carbapenem-sensitive Escherichia coli 17-3 assessed as reduction in bacterial growth; type: functional
Escherichia coli [24] = assay: Ratio of MBC to MIC for ESBLs positive Carbapenem-sensitive Escherichia coli 17-18 assessed as reduction in bacterial growth; type: functional
Enterobacter cloacae [25] = assay: Ratio of MBC to MIC for Enterobacter cloacae 17-8 assessed as reduction in bacterial growth; type: functional
Enterobacter cloacae [26] = assay: Ratio of MBC to MIC for Enterobacter cloacae 17-10 assessed as reduction in bacterial growth; type: functional
Klebsiella aerogenes [27] = assay: Ratio of MBC to MIC for Enterobacter aerogenes 17-4 assessed as reduction in bacterial growth; type: functional
Klebsiella aerogenes [28] = assay: Ratio of MBC to MIC for Enterobacter aerogenes 15-4 assessed as reduction in bacterial growth; type: functional
Escherichia coli [29] = assay: Ratio of MBC to MIC for Escherichia coli ATCC 25922 assessed as reduction in bacterial growth; type: functional
Klebsiella pneumoniae [30] = assay: Ratio of MBC to MIC for ESBLs positive Carbapenem-sensitive Klebsiella pneumoniae 17-6 assessed as reduction in bacterial growth in the presence of Avibactam; type: functional
Klebsiella pneumoniae [31] = assay: Ratio of MBC to MIC for ESBLs negative Carbapenem-sensitive Klebsiella pneumoniae 17-16 assessed as reduction in bacterial growth in the presence of Avibactam; type: functional
Escherichia coli [32] = assay: Ratio of MBC to MIC for ESBLs negative carbapenem-negative Escherichia coli 17-7 assessed as reduction in bacterial growth in the presence of Avibactam; type: functional
Escherichia coli [33] = assay: Ratio of MBC to MIC for ESBLs negative carbapenem-negative Escherichia coli 17-20 assessed as reduction in bacterial growth in the presence of Avibactam; type: functional
Klebsiella aerogenes [34] = assay: Ratio of MBC to MIC for Enterobacter aerogenes 15-3 assessed as reduction in bacterial growth in the presence of Avibactam; type: functional
Pseudomonas aeruginosa [35] = assay: Ratio of MBC to MIC for carbapenem-sensitive Pseudomonas aeruginosa 17-10 assessed as reduction in bacterial growth in the presence of Avibactam; type: functional
Pseudomonas aeruginosa [36] = assay: Ratio of MBC to MIC for carbapenem-sensitive Pseudomonas aeruginosa 17-29 assessed as reduction in bacterial growth in the presence of Avibactam; type: functional
Escherichia coli [37] = assay: Ratio of MBC to MIC for Escherichia coli ATCC 25922 assessed as reduction in bacterial growth in the presence of Avibactam; type: functional
Acinetobacter baumannii = assay: Ratio of MBC to MIC for Acinetobacter baumannii NCTC 13304 assessed as reduction in bacterial growth in the presence of Avibactam; type: functional
Enterobacter cloacae [38] = assay: Antibacterial activity against Enterobacter cloacae 17-3 assessed as reduction in bacterial growth
Enterobacter cloacae [39] = assay: Antibacterial activity against Enterobacter cloacae 17-8 assessed as reduction in bacterial growth
Klebsiella aerogenes [40] = assay: Antibacterial activity against Enterobacter aerogenes 17-3 assessed as reduction in bacterial growth
Enterobacter cloacae [41] = assay: Bactericidal activity against Enterobacter cloacae 17-3 assessed as reduction in bacterial growth; type: functional
Klebsiella aerogenes [42] = assay: Bactericidal activity against Enterobacter aerogenes 17-3 assessed as reduction in bacterial growth; type: functional
Klebsiella aerogenes [43] = assay: Antibacterial activity against Enterobacter aerogenes 17-4 assessed as reduction in bacterial growth
Klebsiella pneumoniae [44] = assay: Antibacterial activity against ESBLs negative Carbapenem-sensitive Klebsiella pneumoniae 17-17 assessed as reduction in bacterial growth

## Nc1nc(/C(=N/OCc2cc(=O)c(O)cn2O)C(=O)N[C@@H]2C(=O)N3C(C(=O)O)=CCS[C@H]23)cs1
Escherichia coli [1]
  MIC: 1 µg/mL
Klebsiella pneumoniae [2]
  MIC: 1 µg/mL
Klebsiella pneumoniae [3]
  MIC: 4 µg/mL
Klebsiella pneumoniae [4]
  MIC: ≤ 0.03 µg/mL
Escherichia coli [5]
  MIC: 0.125 µg/mL
Escherichia coli [6]
  MIC: 0.25 µg/mL
Escherichia coli [7]
  MIC: 0.5 µg/mL
Escherichia coli [8]
  MIC: 0.125 µg/mL
Escherichia coli [9]
  MIC: 0.5 µg/mL
Escherichia coli [10]
  MIC: 0.5 µg/mL
Escherichia coli [11]
  MIC: 0.5 µg/mL
Escherichia coli [12]
  MIC: 0.06 µg/mL
Enterobacter cloacae [13]
  MIC: 2 µg/mL
Enterobacter cloacae [14]
  MIC: 1 µg/mL
Enterobacter cloacae [15]
  MIC: 2 µg/mL
Pseudomonas aeruginosa [16]
  MIC: 0.25 µg/mL
Pseudomonas aeruginosa [17]
  MBC: 64 µg/mL (≈ 126 µM)
Klebsiella pneumoniae [18]
  Ratio: 2
Klebsiella pneumoniae [19]
  Ratio: 2
Klebsiella pneumoniae [20]
  Ratio: 2
Escherichia coli [21]
  Ratio: 4
Escherichia coli [22]
  Ratio: >8
Escherichia coli [23]
  Ratio: 1
Escherichia coli [24]
  Ratio: 4
Enterobacter cloacae [25]
  Ratio: 1
Enterobacter cloacae [26]
  Ratio: >8
Klebsiella aerogenes [27]
  Ratio: 2
Klebsiella aerogenes [28]
  Ratio: 1
Escherichia coli [29]
  Ratio: >16
Klebsiella pneumoniae [30]
  Ratio: 2
Klebsiella pneumoniae [31]
  Ratio: 1
Escherichia coli [32]
  Ratio: 2
Escherichia coli [33]
  Ratio: >16
Klebsiella aerogenes [34]
  Ratio: 1
Pseudomonas aeruginosa [35]
  Ratio: 2
Pseudomonas aeruginosa [36]
  Ratio: 8
Escherichia coli [37]
  Ratio: 2
Acinetobacter baumannii
  Ratio: 1
Enterobacter cloacae [38]
  MIC: 64 µg/mL (≈ 126 µM)
Enterobacter cloacae [39]
  MIC: 16 µg/mL (≈ 31.5 µM)
Klebsiella aerogenes [40]
  MIC: 2 µg/mL (≈ 3.93 µM)

## CC(C)(O/N=C(\C(=O)N[C@@H]1C(=O)N2C(C(=O)[O-])=C(C[n+]3ccccc3)CS[C@H]12)c1csc(N)n1)C(=O)O [CEFTAZIDIME]
Enterobacter cloacae [41]
  MBC: > 16 µg/mL
Klebsiella aerogenes [42]
  MBC: 1 µg/mL (≈ 1.83 µM)
Klebsiella aerogenes [43]
  MIC: 8 µg/mL (≈ 14.6 µM)
Klebsiella pneumoniae [44]
  MIC: 0.125 µg/mL (≈ 0.229 µM)

From ChEMBL document CHEMBL4813981, “Synthesis and in vitro antibacterial activity of new aminothiazole-oximepiperidone cephalosporins” (2021)
